Assay results taken from ChEMBL document CHEMBL5465560, “Selectivity Literature for EUbOPEN Chemogenomic Library” (2024).

How the values were obtained:
[1] = target: T1, Serine/threonine-protein kinase 36 (Homo sapiens) (UniProt Q9NRP7); assay: Selectivity interaction (KinomeScan (DiscoverX)) EUB0001049a STK36; settings: at 1 µM
T1 sequence (whole entry): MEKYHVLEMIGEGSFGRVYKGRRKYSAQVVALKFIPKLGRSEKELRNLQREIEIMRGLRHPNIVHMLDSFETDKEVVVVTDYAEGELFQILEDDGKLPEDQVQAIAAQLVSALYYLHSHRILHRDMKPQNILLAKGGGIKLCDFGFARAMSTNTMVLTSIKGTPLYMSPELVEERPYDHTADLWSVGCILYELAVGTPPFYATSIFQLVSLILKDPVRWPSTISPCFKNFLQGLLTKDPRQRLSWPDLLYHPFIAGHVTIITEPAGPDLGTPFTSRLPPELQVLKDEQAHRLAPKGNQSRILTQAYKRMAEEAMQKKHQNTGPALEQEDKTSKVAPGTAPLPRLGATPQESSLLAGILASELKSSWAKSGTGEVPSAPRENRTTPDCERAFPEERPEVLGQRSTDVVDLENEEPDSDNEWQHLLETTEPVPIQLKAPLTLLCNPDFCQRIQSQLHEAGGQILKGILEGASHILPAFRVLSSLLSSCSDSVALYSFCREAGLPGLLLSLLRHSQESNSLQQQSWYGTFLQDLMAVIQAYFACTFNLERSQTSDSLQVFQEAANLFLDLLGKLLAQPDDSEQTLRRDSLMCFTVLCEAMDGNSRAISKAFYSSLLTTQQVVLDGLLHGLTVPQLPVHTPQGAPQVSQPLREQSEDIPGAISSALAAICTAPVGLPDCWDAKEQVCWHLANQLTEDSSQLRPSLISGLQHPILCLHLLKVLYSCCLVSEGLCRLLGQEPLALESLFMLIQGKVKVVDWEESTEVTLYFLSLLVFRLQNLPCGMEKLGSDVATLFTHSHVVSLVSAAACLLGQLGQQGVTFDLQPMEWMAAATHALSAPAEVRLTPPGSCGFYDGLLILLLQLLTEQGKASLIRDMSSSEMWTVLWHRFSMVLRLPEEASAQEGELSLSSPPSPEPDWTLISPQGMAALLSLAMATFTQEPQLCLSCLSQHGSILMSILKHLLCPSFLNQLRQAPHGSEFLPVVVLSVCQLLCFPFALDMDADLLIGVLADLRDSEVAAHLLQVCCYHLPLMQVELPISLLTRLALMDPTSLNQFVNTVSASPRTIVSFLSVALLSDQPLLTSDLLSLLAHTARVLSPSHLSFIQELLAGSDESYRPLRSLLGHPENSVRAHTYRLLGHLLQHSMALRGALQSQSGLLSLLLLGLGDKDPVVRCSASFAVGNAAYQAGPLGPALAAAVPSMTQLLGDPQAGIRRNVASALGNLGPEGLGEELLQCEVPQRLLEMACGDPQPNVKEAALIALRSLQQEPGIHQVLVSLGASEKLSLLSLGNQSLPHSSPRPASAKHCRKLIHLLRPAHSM

[2] = target: Mitogen-activated protein kinase 8 (Homo sapiens, UniProt P45983); assay: Selectivity interaction (KinomeScan (DiscoverX)) EUB0000655a MAPK8; settings: at 10 µM
Mitogen-activated protein kinase 8, sequence (P45983 whole entry): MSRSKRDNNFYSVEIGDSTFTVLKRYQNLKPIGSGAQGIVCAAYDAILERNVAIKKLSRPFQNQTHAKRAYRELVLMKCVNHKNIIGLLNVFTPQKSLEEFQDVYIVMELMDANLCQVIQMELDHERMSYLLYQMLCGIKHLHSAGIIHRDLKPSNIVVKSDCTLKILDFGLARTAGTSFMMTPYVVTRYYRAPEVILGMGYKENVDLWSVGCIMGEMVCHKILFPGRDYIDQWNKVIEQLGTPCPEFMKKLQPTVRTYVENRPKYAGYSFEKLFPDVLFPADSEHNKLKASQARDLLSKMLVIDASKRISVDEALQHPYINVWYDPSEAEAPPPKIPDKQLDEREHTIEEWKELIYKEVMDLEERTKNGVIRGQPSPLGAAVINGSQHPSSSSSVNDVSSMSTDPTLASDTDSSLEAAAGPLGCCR

[3] = target: T2, Tyrosine-protein kinase JAK3 (Homo sapiens) (UniProt P52333); assay: Selectivity interaction (KinomeScan (DiscoverX)) EUB0000607a JAK3; settings: at 10 µM
T2 sequence (whole entry): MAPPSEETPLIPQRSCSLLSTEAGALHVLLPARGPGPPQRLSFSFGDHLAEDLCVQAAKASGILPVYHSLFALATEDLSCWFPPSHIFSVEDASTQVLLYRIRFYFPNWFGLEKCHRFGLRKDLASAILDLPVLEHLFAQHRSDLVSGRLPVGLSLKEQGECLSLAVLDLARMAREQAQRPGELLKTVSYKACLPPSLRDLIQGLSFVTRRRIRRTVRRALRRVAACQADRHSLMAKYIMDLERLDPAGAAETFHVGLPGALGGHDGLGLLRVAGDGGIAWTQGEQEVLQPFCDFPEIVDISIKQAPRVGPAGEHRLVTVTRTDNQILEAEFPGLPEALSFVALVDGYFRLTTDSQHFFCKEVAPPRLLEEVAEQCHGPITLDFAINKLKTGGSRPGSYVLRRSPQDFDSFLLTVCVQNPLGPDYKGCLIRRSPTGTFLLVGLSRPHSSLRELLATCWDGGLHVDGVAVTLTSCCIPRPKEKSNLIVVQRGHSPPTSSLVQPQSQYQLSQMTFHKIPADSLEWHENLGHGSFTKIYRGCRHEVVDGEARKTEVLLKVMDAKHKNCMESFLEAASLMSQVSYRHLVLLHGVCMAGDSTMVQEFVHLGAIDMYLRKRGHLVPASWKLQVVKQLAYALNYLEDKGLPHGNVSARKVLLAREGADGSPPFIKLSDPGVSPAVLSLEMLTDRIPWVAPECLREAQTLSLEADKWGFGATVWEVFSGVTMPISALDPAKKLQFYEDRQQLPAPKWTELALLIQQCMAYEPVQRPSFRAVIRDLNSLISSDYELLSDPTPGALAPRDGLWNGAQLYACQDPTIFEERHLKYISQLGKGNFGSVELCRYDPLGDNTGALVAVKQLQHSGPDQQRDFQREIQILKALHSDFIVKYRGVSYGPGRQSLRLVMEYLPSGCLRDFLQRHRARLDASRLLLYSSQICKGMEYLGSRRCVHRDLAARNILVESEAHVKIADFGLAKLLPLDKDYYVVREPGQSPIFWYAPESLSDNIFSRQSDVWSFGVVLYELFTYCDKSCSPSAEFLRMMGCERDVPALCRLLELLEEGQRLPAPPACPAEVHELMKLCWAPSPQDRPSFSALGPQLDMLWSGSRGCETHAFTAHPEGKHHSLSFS

For `COc1cc(Nc2nc(C)cc(-c3cnn4nc(OC)ccc34)n2)cc(C(F)(F)F)c1`, which % of control [1] is on record?
Its % of control is 99%.

How did the % of control [2] turn out when `CN(C)CCOc1ccc(-c2nc(-c3ccncc3)c(-c3ccc4c(c3)CC/C4=N\O)[nH]2)cc1` was run?
Its % of control is 92%.

Which % of control [3] does the source give for `CNC(=O)Nc1ccc(-c2nc(N3CC4CCC(C3)O4)c3cnn(C4CCC5(CC4)OCCO5)c3n2)cc1` here?
The % of control was 90%.
